Reference: patent US9795692B2, “Ocular detection of amyloid proteins” (SYSTEM OF SYSTEMS ANALYTICS, INC., priority 2011, dated 2017)

Tests used:
Format in all cases: binding
[1] = test system: amyloid protein aggregates in brain tissue of transgenic mice with Alzheimer's Disease (Tg AD); experiment: Staining of murine brain tissue with FITC-labeled probe; settings: age-matched non-Tg murine brain; dentate gyrus or midbrain
Experimental: Probes for detecting amyloid protein aggregates in brain tissue of transgenic mice with Alzheimer's Disease (Tg AD) were prepared in accordance with the methods described herein.

[2] = test system: amyloid aggregates in human eyes (optic nerve, ciliary retina, retina, drusen); experiment: Staining of sectioned human donor eyes
Source text: Human eyes from donors with and without Alzheimer's Disease were obtained from the Georgia Eye Bank.

[3] = molecular target: T1, non-Congophilic amyloid protein aggregates in human brain tissue (Homo sapiens, UniProt P05067); experiment: Staining of human hippocampal region and cerebral cortex compared with Congo Red
T1 construct: from tissue; host or cells: human post-mortem brain tissue (neocortex, hippocampus, cerebral cortex)
T1 sequence (P05067 672-713 limits assumed): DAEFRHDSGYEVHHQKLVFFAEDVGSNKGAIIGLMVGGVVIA

[4] = patient (3), 11-1755/6, person, Alzheimer's Disease and dementia
[5] = patient (4), 11-1767-8, person, Alzheimer's Disease

| Molecule | staining of non-Tg control brain tissue [1] | binding to amyloid aggregates in the optic nerve, intensity ([2]; human eye sections, optic nerve, PEP-11 compared with BC750) | staining of the retina, intensity and homogeneity ([2]; human eye sections, retina) | retinal staining: distinguishing Alzheimer's Disease from non-Alzheimer's Disease tissue ([2]; human eye sections, retina, AD vs non-AD eyes) | binding in optic nerve and ciliary retina ([2]; human eye sections, optic nerve immediately posterior to lamina cribrosa, ciliary retina) | manner of optic nerve staining ([2]; optic nerve of Alzheimer's Disease patients) | ciliary retina background staining [2, 4] | optic nerve staining [2, 4] | ciliary retina background staining [2, 5] | optic nerve staining [2, 5] | staining of drusen ([2]; patient eyes, generally) | structures stained in the cerebral cortex ([3]; cerebral cortex of patients with Alzheimer's Disease) | staining of morphological structures within the brain parenchyma ([3]; human brain parenchyma) | structures stained in the hippocampal region ([3]; human brain tissue, hippocampal region) |
| --- | --- | --- | --- | --- | --- | --- | --- | --- | --- | --- | --- | --- | --- | --- |
| PEP-11: WT17-35 with FITC and d-Arginine at C-Terminal (CLVFFAEDVGSNKGAIIGLMC; FITC label, C-terminal D-arginine; /note=“Description of Artificial Sequence Synthetic probe”) | minimally stained | significantly greater | ubiquitous background staining of retinal tissue | less intensely in non-Alzheimer's Disease eyes as compared to Alzheimer's Disease eyes | bound to amyloid aggregates | dose gradient manner | moderate and homogenous | moderate | moderate and homogenous | intense | appears to stain drusen |  |  |  |
| Nc1c(/N=N/c2ccc(-c3ccc(/N=N/c4cc(S(=O)(=O)O)c5ccccc5c4N)cc3)cc2)cc(S(=O)(=O)O)c2ccccc12 [Congo Red] |  |  |  |  |  |  |  |  |  |  |  | stained congophilic neuro-fibrillary tangles | Neither Congo Red nor PEP-11 stained any morphological structure | stained amyloid plaques at the center of the plaques |
